Patent publication US10246418B2, “Crystal form of lenvatinib methanesulfonate salt and preparation method thereof” (CRYSTAL PHARMATECH CO., LTD., priority 2015, dated 2019)
In brackets after ≈: the same amount, converted by molar mass.

Assays:
[1] = Solubility comparison: saturated solutions in SGF, FaSSIF, FeSSIF and high purity water, concentration by HPLC; details: for Solubility: HPLC; for solubility at 24 h: thermodynamic from solid
Method: Solubility comparison between crystalline Form M of lenvatinib mesylate of the present disclosure and anhydrate Form C in patent CN1890220A:
Crystalline Form M of lenvatinib mesylate prepared in example 1 and anhydrate Form C in CN1890220A were prepared into saturated solution in pH 1.8 SGF (Simulated gastric fluid), pH 5.0 FeSSIF (Fed state simulated intestinal fluid), FassIF (Fasted state simulated intestinal fluid) and high purity water. Concentrations in the saturated solutions were determined after 24 hours by HPLC.

[2] = Stability assessment of crystalline form by XRPD before and after storage; assay type: physicochemical; details: 7 days
Method: FIG. 7a˜7c show XRPD patterns overlay of crystalline Form M of lenvatinib mesylate before and after stored in the following conditions for 7 days: a) sealed in aluminum plastic bags at 25° C./60% RH; b) sealed in aluminum plastic bags at 40° C./75% RH; c) sealed in aluminum plastic bags at 60° C./75% RH.
Stability assessment of Form M of lenvatinib mesylate of the present disclosure:
Three samples of crystalline Form M of lenvatinib mesylate were stored under the following conditions: a) sealed in aluminum plastic bags at 25° C./60% RH; b) sealed in aluminum plastic bags at 40° C./75% RH; c) sealed in aluminum plastic bags at 60° C./75% RH. The samples were tested by XRPD before and after stored for 7 days.

Row | Structure (SMILES) | Solubility ([1]; FaSSIF (fasted state simulated intestinal fluid), saturated solution, 24 h) [µg/mL] | Solubility ([1]; FeSSIF (fed state simulated intestinal fluid) pH 5.0, saturated solution, 24 h) [µg/mL] | Solubility ([1]; High purity water, saturated solution, 24 h) [µg/mL] | Solubility ([1]; SGF (simulated gastric fluid) pH 1.8, saturated solution, 24 h) [µg/mL] | Solubility in comparison with Form C in patent CN1890220A ([1]; SGF, FaSSIF, FeSSIF, high purity water, 24 h) | solubility at 24 h ([1]; fasted state simulated intestinal fluid (FaSSIF), fassif) [µg/mL] | solubility at 24 h ([1]; fed state simulated intestinal fluid (FeSSIF), pH 5, fessif) [µg/mL] | solubility at 24 h ([1]; high purity water, water) [µg/mL] | solubility at 24 h ([1]; simulated gastric fluid (SGF), pH 1.8, simulated gastric fluid) [µg/mL] | Crystalline form stability (XRPD pattern before and after storage) ([2]; sealed in aluminum plastic bags at 25° C./60% RH) | Crystalline form stability (XRPD pattern before and after storage) ([2]; sealed in aluminum plastic bags at 40° C./75% RH) | Crystalline form stability (XRPD pattern before and after storage) ([2]; sealed in aluminum plastic bags at 60° C./75% RH)
1 | COc1cc2nccc(Oc3ccc(NC(=O)NC4CC4)c(Cl)c3)c2cc1C(N)=O.CS(=O)(=O)O [Form C, reference compound] | 1.5 | 0.3 | 1000 | 640 |  |  |  |  |  |  |  | 
2 | COc1cc2nccc(Oc3ccc(NC(=O)NC4CC4)c(Cl)c3)c2cc1C(N)=O [Form M, 4-{3-Chloro-4-[(cyclopropylcarbamoyl)amino]phenoxy}-7-methoxy-6-quinolinecarboxamide] |  |  |  |  | higher solubility | 24 (≈ 56.2 µM) | 0.4 (≈ 0.937 µM) | 1600 (≈ 3750 µM) | 690 (≈ 1620 µM) | remained unchanged | remained unchanged | remained unchanged
